Laboratory results reported in patent US9061012B2, “Uses of DGAT1 inhibitors” (Novartis AG, priority 2010, dated 2015).

Tests used:
STZ rats = assay: Plasma triglycerides after Intralipid in a model of severe hypertriglyceridemia (STZ, high fat diet); type: in vivo, rat (male Sprague Dawley); conditions: for Plasma TG at 2 hrs / Plasma TG at 4 hrs: 10 mpk oral gavage 30 min before Intralipid 10 ml/kg; for Plasma TG at 2 hrs: 2 hrs post-Intralipid; for Plasma TG at 2 hrs / Plasma TG at 4 hrs / Pre-dose TG: mean ± SEM; for Plasma TG at 4 hrs / Plasma TGs at 4 hrs compared between groups: 4 hrs post-Intralipid; for Pre-dose TG: baseline immediately before dosing, 6 h fasted, group later given 10 mpk oral, n=10/group
Protocol: Male Sprague Dawley (SD) rats at 12 wks of age were studied. Orlistat (04139-100MG) and Streptozotocin (S0130-1G) were purchased from Sigma (St. Louis, Mo.).
Compounds were suspended in vehicle (0.5% methyl cellulose with 0.1% Tween-80) to achieve a dosing volume of 4 ml/kg and dosing concentration of 10 mpk for both compound 1 and orlistat (Sigma, St. Louis, Mo.).
Two weeks into consuming a 60% high fat diet, animals were treated with a 40 mpk dose of streptozotocin (STZ given intravenously (iv) in 10 mM sodium citrate in normal saline, pH=4.5). Nine days later, animals were assigned to three experimental groups (vehicle, compound 1 at 10 mpk, or orlistat at 10 mpk) on the basis of 6 hr fasted TG concentrations (n=10/group). On the morning of the study, 14 days after animals were placed in experimental groups, animals were fasted for 6 hours, after which studies commenced at 1100 hr with baseline blood collected by tail nick into ethylenediaminetetraacetic acid-lined tubes (Sarstedt, Nümbrecht, Germany).
The baseline blood sample (80 μl) was collected immediately prior to administering compounds. Rats were orally gavaged with drug or vehicle (4 ml/kg) beginning at 1100 hrs. Thirty minutes later, Intralipid was orally gavaged at 10 ml/kg to all rats, representing t=0 hr. At 2 and 4 hrs post-Intralipid, tail nick blood samples were taken to assess plasma TGs.
Blood samples remained on ice following collection for no longer than 30 min prior to centrifugation (10 min, 4° C., 1000 g) and resulting plasma was aliquoted for plasma TG analysis.
Plasma TGs (triglycerides) (corrected for glycerol) were compared on an absolute basis, as a percent change from baseline (% TGs), and as area above baseline over 0-4 hours (AABtg0-4-h) using the Trapezoidal rule. Percent change from baseline was calculated as follows: % change from baseline=([TGs] at 2 or 4 hrs)−([TGs] at baseline)*100 [TGs] at baseline Statistical Analyses
Data are reported as means±SEM. One-way ANOVA (analysis of variance) assessed between-group differences when any comparisons that were not time-dependent were made (body weight, pre-study plasma TGs, AABtg0-4-h). To assess that the Intralipid bolus produced a significant increase in plasma TGs in the vehicle group, a repeated measures (RM) one-way ANOVA was used with Tukey's posthoc test applied to compare plasma parameter means at 2 and 4 hrs vs. pre-treatment concentrations. RM two-way ANOVA was used to assess the significance of the treatment-by-time interaction for plasma parameters (TGs and % TGs) followed by Bonferroni's t-test to compare differences among the groups. Outliers were determined using the Grubb's Test for Outliers. Significance was set at P≦0.05.

Triton rat = assay: Plasma triglycerides after Intralipid and Triton WR-1339 in a model of impaired triglyceride clearance; type: in vivo, rat (male Sprague Dawley); conditions: for Plasma TG at 90 min: 90 min after Triton WR-1339 100 mg/kg i.v.; for Plasma TG at 90 min / Plasma TG at 120 min / Pre-Triton TG: compound 1 at 10 mg/kg by gavage, mean ± SEM; for Plasma TG at 120 min: 120 min after Triton WR-1339 100 mg/kg i.v.; for Pre-Triton TG: before Triton WR-1339, Intralipid 10 mL/kg 30 min later
Protocol: Male Sprague Dawley rats were studied at 9 and 10 weeks of age and were overnight fasted the night prior to study. The compound treated groups received a suspension of compound 1 at 10 mg/kg administered in 0.5% methyl cellulose with 0.1% Tween-80 at […]. Vehicle treated groups were dosed in a volume-matched manner with 0.5% methyl cellulose with 0.1% Tween-80. Vehicle and compounds were made up in a single batch the day before the start of each study. Orlistat was administered as a suspension in 0.5% methyl cellulose with 0.1% Tween-80 at 4 mL/kg. Intralipid was used as a high fat meal. Triton WR-1339 (10% weight: weight) was dissolved in normal saline and dosed at 100 mg/kg (i.v.) at a volume of 1 mL/kg. A baseline blood sample was collected by tail nick into ethylenediaminetetraacetic acid-lined tubes (Sarstedt, Nümbrecht, Germany) immediately prior to administering compounds (between 0830 and 0900 hrs). Rats were gavaged with drug or vehicle (4 mL/kg) beginning at 0830 hrs. Thirty minutes later, Intralipid was gavaged at 10 mL/kg to all rats, representing t=−30 min. Again, thirty minutes later, representing time=0 min, all rats were dosed via tail vein with Triton WR-1339 (100 mg/kg and 1 mL/kg) in normal saline. Blood samples were taken at −30 minutes (immediately prior to Intralipid/water dosing), −15 minutes, 0 minutes (immediately prior to Triton WR-1339 administration), as well as at 30, 60, 90, 120, and 240 minutes following administration of Triton WR-1339. Blood samples remained on ice following collection for no longer than 30 min prior to centrifugation. Following centrifugation (10 min, 4° C., 1000×g), plasma was aliquoted for plasma TG analysis. Data are reported as means±SEM. Repeated measures two-way ANOVA was used to assess the significance of the treatment by time interaction in plasma TGs followed by Tukey's post-hoc test to compare differences among the groups. Significance was set at P<0.05 and represented as asterisks in FIG. 3.

FCS (Type I) patients = assay: Open-label clinical study, fasting and postprandial (MTT) triglycerides in FCS patients; type: in vivo, human
Protocol: (§1) An open-label, multiple-dose, parallel group clinical study is carried out to assess the safety, tolerability, pharmacokinetics and pharmacodynamics of compound 1 in twelve patients with chylomicronemia (six with FCS and six with Type V).
(§2) The safety and tolerability of multiple doses of Compound 1 in patients with chylomicronemia (both FCS and Type V), and the effect of oral Compound 1 on fasting and postprandial plasma triglycerides in the study population are determined using the following method.
(§3) The clinical study is an open-label, out-patient parallel group study to assess the safety, tolerability, pharmacokinetics and pharmacodynamics of Compound 1 administered once daily for 21 days in patients with chylomicronemia (both FCS and Type V). Six patients of each phenotype are enrolled and treated with Compound 1 at 20 mg per day for 21 days. Following a screening period of up to 90 days, eligible patients undergo a 7-day baseline period, a 21-day treatment period, a 14-day follow-up period after last treatment day and a study completion evaluation.
(§4) The enrolling criteria for Type V patients is a screening baseline of greater than or equal to 1000 mg/dL fasting triglycerides (TG), and a documented history of heterozygous lipoprotein lipase deficiency. The enrolling criteria for familial chylomicronemia syndrome (FCS) patients is a screening baseline of greater than or equal to 1000 mg/dL fasting triglycerides, and a documented history of homozygous lipoprotein lipase deficiency.
(§5) Patients are seen at a screening visit, and, if found to meet enrollment criteria, are enrolled in the study. At this time they are given instructions to adhere to a very low fat diet (<15 g/day) during the duration of the study, as is the standard of care for this population. Patients are also provided with three days' worth of standardized very low fat meals that are consumed for the three days prior to baseline evaluation (Day—4, Day—3, & Day—2)
(§6) Patients arrive at the study site on Day—1 early morning after an overnight fast for a meal tolerance test (MTT) to evaluate baseline postprandial triglyceride (TG) response. The MTT is a liquid meal of approximately 700 kcal, being 13% fat, 65% carbohydrates and 22% protein. Before the MTT, and at hourly time points through 9 hours, blood samples are taken for triglyceride and other metabolic measurements. Patients are discharged after completing this assessment and return to the study site next morning (Day 1) for a blood collection approximately 24 hours post meal, before the first dose of the study drug (Compound 1 tablets) is administered.
(§7) On the morning of Day 1, patients receive the first dose of Compound 1 at the clinic site. The drug supply for remainder of the 21-day treatment period is provided to the patients, who are instructed to take the drug orally once daily approximately one hour before breakfast for 21 days. Patients are also instructed to continue adherance to a very low fat diet. Patients are then released to home.
(§8) Patients report to the study site once weekly during the treatment period for safety and pharmacokinetics assessment, drug accountability and reviewing the meal plan and food diary. Additionally, the site staff contacts patients by phone, at least once between the clinic visits to check patients' wellbeing and monitor compliance with drug administration and low-fat meals instructions.
(§9) Patients are given pre-prepared very low-fat meals again that are consumed on Day 18, 19 & 20. Patients return to the study site on Day 21 early morning after an overnight fast for a second test meal (MTT) and frequent blood samples collection to evaluate postprandial TG response. Following the MTT and associated Day 21 assessments, patients are discharged to home. They return on the morning of Day 22 for a 24 h blood sample for triglycerides.

Type V patients = assay: Open-label clinical study, fasting and postprandial (MTT) triglycerides in Type V patients; type: in vivo, human
Protocol: as §1, §2, §3, §4, §5, §6, §7, §8, §9

[1] = system: patients with chylomicronemia (both FCS and Type V); assay: Open-label clinical study, safety and tolerability and overall triglyceride effect in patients with chylomicronemia (FCS and Type V); type: in vivo
Protocol: as §1, §2, §3
The enrolling criteria for Type V patients is a screening baseline of greater than or equal to 1000 mg/dL fasting triglycerides (TG), and a documented history of heterozygous lipoprotein lipase deficiency. […]

[2] = Type I (FCS) patients, n = 6, 20 mg per day oral for 21 days, MTT
[3] = Type I (FCS) patients, n = 6, MTT before treatment
[4] = n = 6, 20 mg per day oral for 21 days, MTT

Which results are given for O=C([O-])C[C@H]1CC[C@H](c2ccc(-c3ccc(Nc4ccc(C(F)(F)F)nc4)cn3)cc2)CC1.[Na+] [Compound 1, trans-4-[4-[5-[[6-(trifluoromethyl)-3-pyridinyl]amino]-2-pyridinyl]phenyl]cyclohexane acetic acid, sodium salt]?
Plasma TG at 2 hrs (STZ rats): 494.5 ± 54.2 mg/dL; Plasma TG at 4 hrs (STZ rats): 461.5 ± 52.5 mg/dL; Plasma TGs at 4 hrs compared between groups (STZ rats; 10 mpk oral): did not differ; Plasma TGs at 2 hrs compared to vehicle and orlistat groups (STZ rats; 10 mpk oral, P≦0.001): significantly lower; Pre-dose TG (STZ rats): 346.1 ± 49.6 mg/dL; Blunting an increase in plasma triglycerides (STZ rats; model of severe hypertriglyceridemia): effective; Plasma TG at 90 min (Triton rat): 290.2 ± 89.7 mg/dL; Plasma TG at 120 min (Triton rat): 479.3 ± 123.4 mg/dL; Pre-Triton TG (Triton rat): 35.6 ± 5.6 mg/dL; Rate of absorption of triglycerides arising from a high fat meal (Triton rat; conclusion from Triton rat data): suppresses; Plasma TG appearance compared to vehicle and orlistat treatments (Triton rat; following Intralipid bolus, at 90 and 120 minutes post Triton WR-1339, P≦0.05): significantly decreased; Fasting TG, Mean Δ from Baseline (FCS (Type I) patients; Type I (FCS) patients, n = 6, 20 mg per day oral for 21 days): −38.4%; Postprandial Peak TG, Mean Δ from Baseline (FCS (Type I) patients; [2]): −36.4%; Postprandial TG AUC0-9, Mean Δ from Baseline (FCS (Type I) patients; [2]): −35.4%; Postprandial Peak TG, Mean Baseline (FCS (Type I) patients; [3]): 1913.1 mg/dL; Postprandial TG AUC0-9, Mean Baseline (FCS (Type I) patients; [3]): 15044.5 mg·h/dL; Fasting TG, Mean Baseline (FCS (Type I) patients; Type I (FCS) patients, n = 6, before treatment): 1968.0 mg/dL; Fasting triglycerides decreased by (FCS (Type I) patients; patients with FCS, 20 mg daily for 3 weeks): 38.4%; Postprandial triglycerides (FCS (Type I) patients; patients with FCS, 20 mg daily for 3 weeks, relative to fasting TG decrease): reduced by a similar magnitude; Triglyceride levels decreased by (FCS (Type I) patients; patients with FCS, to near the threshold for increased pancreatitis risk (about 1000 mg/dL)): about 40%; Fasting triglycerides decreased by (Type V patients; 20 mg daily for 3 weeks): 23.6%; Triglyceride levels relative to the threshold for increased pancreatitis risk (about 1000 mg/dL) (Type V patients; 20 mg daily for 3 weeks): kept well below the threshold; Postprandial triglycerides (Type V patients; 20 mg daily for 3 weeks, relative to fasting TG decrease): reduced by a similar magnitude; Fasting TG, Mean Δ from Baseline (Type V patients; n = 6, 20 mg per day oral for 21 days): −23.6%; Postprandial Peak TG, Mean Δ from Baseline (Type V patients; [4]): −25.8%; Postprandial TG AUC0-9, Mean Δ from Baseline (Type V patients; [4]): −27.3%; Postprandial Peak TG, Mean Baseline (Type V patients; n = 6, MTT before treatment): 835.2 mg/dL; Postprandial TG AUC0-9, Mean Baseline (Type V patients; n = 6, MTT before treatment): 6873.0 mg·h/dL; Fasting TG, Mean Baseline (Type V patients; n = 6, before treatment): 745.8 mg/dL; Safety and tolerability ([1]; all 12 patients, 20 mg daily for 3 weeks): safe and well tolerated; Triglyceride levels after 3 weeks of treatment ([1]; both groups of patients (FCS and Type V), 20 mg daily): decreased

Which “Plasma TG at 2 hrs” value (STZ rats) does the source give for CCCCCCCCCCC[C@@H](C[C@@H]1OC(=O)[C@H]1CCCCCC)OC(=O)[C@H](CC(C)C)NC=O [Orlistat, reference compound] here?
The value was 891.8 ± 97.8 mg/dL.

And the “Plasma TG at 4 hrs” value (STZ rats)?
The value was 236.3 ± 37.9 mg/dL.

What about the “Plasma TGs at 4 hrs compared between groups” value (STZ rats; 10 mpk oral) of the same molecule?
Its value is “lower than the other 2 groups”.

What about the “Pre-dose TG” value (STZ rats) of the same molecule?
The value was 288.4 ± 27.4 mg/dL.

What about the “Plasma TG at 90 min” value (Triton rat) of the same molecule?
Its value is 747.3 ± 203.7 mg/dL.

What about the “Plasma TG at 120 min” value (Triton rat) of the same molecule?
The value was 984.9 ± 251.7 mg/dL.

What about the “Pre-Triton TG” value (Triton rat) of the same molecule?
The value was 114.5 ± 13.0 mg/dL.
